Target: T1, farnesoid X receptor alpha (Fxrα) (Oryzias latipes, UniProt H2M6M7)
T1 sequence (H2M6M7 201-485): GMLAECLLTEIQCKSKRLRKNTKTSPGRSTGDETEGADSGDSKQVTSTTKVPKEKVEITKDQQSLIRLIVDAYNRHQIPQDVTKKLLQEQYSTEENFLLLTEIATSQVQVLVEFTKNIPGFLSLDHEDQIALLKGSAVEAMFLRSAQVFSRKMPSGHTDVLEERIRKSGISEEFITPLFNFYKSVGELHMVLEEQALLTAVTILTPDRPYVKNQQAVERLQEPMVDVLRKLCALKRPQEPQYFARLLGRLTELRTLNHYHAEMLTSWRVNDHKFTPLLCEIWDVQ
T1 sequence (Q9UBK2 1-798 partner): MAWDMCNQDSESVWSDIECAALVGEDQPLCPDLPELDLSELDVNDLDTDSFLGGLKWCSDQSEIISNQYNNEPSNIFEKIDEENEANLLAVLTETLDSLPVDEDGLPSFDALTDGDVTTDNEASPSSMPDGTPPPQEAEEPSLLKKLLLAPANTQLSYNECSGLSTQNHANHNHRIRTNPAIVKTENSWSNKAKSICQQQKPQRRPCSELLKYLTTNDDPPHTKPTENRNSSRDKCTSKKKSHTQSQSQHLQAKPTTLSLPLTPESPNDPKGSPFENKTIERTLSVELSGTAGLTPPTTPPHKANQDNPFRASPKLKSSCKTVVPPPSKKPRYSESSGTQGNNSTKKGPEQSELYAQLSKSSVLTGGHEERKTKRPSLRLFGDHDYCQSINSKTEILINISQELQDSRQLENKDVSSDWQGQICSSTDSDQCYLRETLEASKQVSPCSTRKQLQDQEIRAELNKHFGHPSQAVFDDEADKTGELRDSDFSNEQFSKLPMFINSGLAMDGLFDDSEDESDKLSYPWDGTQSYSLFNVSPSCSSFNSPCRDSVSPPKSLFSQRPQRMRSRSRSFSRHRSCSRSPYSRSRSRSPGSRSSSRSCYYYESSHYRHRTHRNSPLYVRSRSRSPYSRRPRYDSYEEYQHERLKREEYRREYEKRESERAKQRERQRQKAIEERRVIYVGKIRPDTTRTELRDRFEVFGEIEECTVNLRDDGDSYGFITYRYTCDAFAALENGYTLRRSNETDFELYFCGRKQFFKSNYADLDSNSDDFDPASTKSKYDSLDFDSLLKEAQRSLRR
Test: Gal4-LBD luciferase reporter in PLHC-1 cells at […]
Conditions: read-out: Gal4-LBD luciferase reporter in PLHC-1 cells at 100 μM

Structure (SMILES): C[C@H](CCC(=O)O)[C@H]1CC[C@H]2[C@@H]3CC[C@@H]4C[C@H](O)CC[C@]4(C)[C@H]3CC[C@]12C [lithocholic acid]
- fold induction at 100 µM: 10.7

Structure (SMILES): C[C@H](CCC(=O)NCCS(=O)(=O)O)[C@H]1CC[C@H]2[C@@H]3CC[C@@H]4C[C@H](O)CC[C@]4(C)[C@H]3CC[C@]12C [taurine conjugate of LCA]
- fold induction at 100 µM: 10.5
